Values of other authors as cited in patent US20060094692A1, “Pharmaceutical formulations of camptothecins and process for making same” (BioNumerik Pharmaceuticals, Inc., priority 2004, published 2006).

Conditions: fraction of the potency of the lactone form

CC[C@@](O)(C(=O)O)c1cc2n(c(=O)c1CO)Cc1cc3ccccc3nc1-2 [carboxylate form of CPT]
antitumor potency relative to the lactone form of CPT: approximately one-tenth or less
